14 molecules from US6831075B2, “Heterocyclic substituted pyrazolones” (Cephalon, Inc., priority 1999, dated 2004) can be followed below.

The inhibition is the relative decrease from the control value, in per cent.

The structures appear in SMILES notation.

What all share (type): biochemical
Test [1] deals with T1, recombinant human baculovirus-expressed FGFR1 cytoplasmic domain (Homo sapiens, UniProt P11362).
T1 construct: recombinant human baculovirus-expressed FGFR1 cytoplasmic domain; host or cells: baculovirus expression system
T1 sequence (P11362 398-822 limits assumed): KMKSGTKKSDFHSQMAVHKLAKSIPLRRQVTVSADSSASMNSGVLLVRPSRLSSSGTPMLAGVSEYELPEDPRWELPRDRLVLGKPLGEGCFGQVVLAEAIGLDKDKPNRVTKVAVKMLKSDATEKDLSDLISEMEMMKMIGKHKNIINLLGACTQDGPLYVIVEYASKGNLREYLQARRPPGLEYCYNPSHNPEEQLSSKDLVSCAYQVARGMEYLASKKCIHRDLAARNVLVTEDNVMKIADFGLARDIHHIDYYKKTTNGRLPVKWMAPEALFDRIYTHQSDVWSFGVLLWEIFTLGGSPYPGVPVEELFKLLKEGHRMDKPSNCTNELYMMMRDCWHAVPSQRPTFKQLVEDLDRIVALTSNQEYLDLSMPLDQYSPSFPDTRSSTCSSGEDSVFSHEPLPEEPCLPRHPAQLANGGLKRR
The experiment in a line: FGFR1 kinase inhibition assay (ELISA-based, time-resolved fluorescence). The following applies: 1 uM compound; 20 μM ATP. Summed up: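 Prephosphorylated baculovirus FGFR1 cytoplasmic domain (15 ng/ml) phosphorylated plate-coated PLC-γ/GST with 20 μM ATP, 10 mM MnCl2, HEPES pH 7.4, 2% DMSO, 15 min at 37 °C. Compounds tested at 1 μM. Phosphotyrosine detected with europium-labelled antibody by time-resolved fluorescence.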
(ELISA stands for enzyme-linked immunosorbent assay.)

The target of test [2] is T2, recombinant human baculoviral VEGFR2 cyctoplasmic domain (Homo sapiens, UniProt P35968).
T2 construct: recombinant human baculoviral VEGFR2 cyctoplasmic domain; host or cells: baculovirus expression system
T2 sequence (P35968 786-1356 limits assumed): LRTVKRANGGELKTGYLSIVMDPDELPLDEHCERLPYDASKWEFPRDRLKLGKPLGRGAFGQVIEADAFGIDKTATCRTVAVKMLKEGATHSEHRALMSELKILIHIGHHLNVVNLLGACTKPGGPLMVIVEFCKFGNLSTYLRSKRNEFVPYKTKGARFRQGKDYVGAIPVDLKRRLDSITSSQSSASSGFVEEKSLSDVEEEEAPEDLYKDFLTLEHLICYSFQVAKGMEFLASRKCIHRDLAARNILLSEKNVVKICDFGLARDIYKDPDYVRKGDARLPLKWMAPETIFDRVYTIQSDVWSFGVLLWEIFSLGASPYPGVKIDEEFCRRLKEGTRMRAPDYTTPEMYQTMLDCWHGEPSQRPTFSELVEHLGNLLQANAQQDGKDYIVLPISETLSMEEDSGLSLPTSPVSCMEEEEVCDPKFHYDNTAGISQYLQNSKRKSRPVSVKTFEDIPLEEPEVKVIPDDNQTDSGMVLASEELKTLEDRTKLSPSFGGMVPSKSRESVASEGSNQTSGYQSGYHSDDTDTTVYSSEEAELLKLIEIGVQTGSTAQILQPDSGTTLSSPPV
The experiment in a line: VEGFR2 kinase inhibition assay (ELISA-based, time-resolved fluorescence). The following applies: 1 uM compound, 30 μM ATP.

In a further test the target is T3, baculoviral GST-MLK2KDLZ (Homo sapiens, UniProt Q02779).
T3 construct: 3 μg/ml of baculoviral GST-MLK2KDLZ; GST (N); host or cells: baculovirus expression system
T3 sequence (Q02779 98-440 limits assumed): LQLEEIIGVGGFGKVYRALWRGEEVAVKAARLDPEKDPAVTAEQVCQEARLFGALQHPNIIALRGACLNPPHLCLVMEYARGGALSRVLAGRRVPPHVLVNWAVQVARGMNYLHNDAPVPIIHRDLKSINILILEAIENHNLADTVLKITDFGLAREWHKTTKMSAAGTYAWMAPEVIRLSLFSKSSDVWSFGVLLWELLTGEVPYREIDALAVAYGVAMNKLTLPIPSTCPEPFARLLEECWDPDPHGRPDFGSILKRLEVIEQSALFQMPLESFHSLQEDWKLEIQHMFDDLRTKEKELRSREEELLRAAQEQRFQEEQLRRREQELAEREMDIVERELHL
The experiment in a line: Mixed Lineage Kinase-2 inhibition assay (Millipore Multiscreen plate, 32P). The following applies: 1 uM compound, 100 μM ATP. A digest of the protocol:
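Baculoviral GST-MLK2KDLZ (3 μg/ml) phosphorylating myelin basic protein (500 μg/ml) with 100 μM ATP plus [γ-32P]ATP in Hepes pH 7, MgCl2, 2% DMSO, 15 min at 37° C. TCA-precipitated protein counted by scintillation.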

The target in test [3] is T4, recombinant human baculovirus-expressed VEGFR1 cytoplasmic domain (Homo sapiens, UniProt P17948).
T4 construct: recombinant human baculovirus-expressed VEGFR1 cytoplasmic domain; host or cells: baculovirus expression system
T4 sequence (P17948 781-1338 limits assumed): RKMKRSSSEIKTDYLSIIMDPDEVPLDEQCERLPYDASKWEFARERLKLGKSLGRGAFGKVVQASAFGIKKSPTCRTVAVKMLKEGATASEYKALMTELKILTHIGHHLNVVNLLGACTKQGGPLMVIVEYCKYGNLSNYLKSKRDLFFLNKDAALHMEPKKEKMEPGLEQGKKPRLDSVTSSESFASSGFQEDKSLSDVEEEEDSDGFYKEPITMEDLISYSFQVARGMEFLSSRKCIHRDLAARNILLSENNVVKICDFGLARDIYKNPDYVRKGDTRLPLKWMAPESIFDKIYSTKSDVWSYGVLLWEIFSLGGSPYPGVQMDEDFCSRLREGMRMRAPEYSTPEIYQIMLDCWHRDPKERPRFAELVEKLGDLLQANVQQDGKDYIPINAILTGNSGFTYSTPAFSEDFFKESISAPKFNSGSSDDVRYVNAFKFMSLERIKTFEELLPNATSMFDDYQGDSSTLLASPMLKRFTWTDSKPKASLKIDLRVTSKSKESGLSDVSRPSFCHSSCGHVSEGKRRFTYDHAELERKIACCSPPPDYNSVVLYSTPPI
The experiment in a line: VEGFR1 kinase inhibition assay (ELISA-based, time-resolved fluorescence). The following applies: 1 uM compound, 30 μM ATP. Summed up: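 Prephosphorylated baculovirus-expressed VEGFR1 cytoplasmic domain (300 ng/ml) phosphorylates plate-bound PLC-γ/GST with 30 μM ATP, 10 mM MnCl2, pH 7.4, 15 min at 37 °C. Compounds tested at 1 μM. Phosphotyrosine detected with europium anti-phosphotyrosine antibody by time-resolved fluorescence.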

`Cc1nc[nH]c1C=C1C(=O)NN=C1c1ccco1` [Compound 53]: the “FGFR1 % inhibition @ 1 uM” value in test [1] is 50%. In addition, the “VEGFR-2 kinase % inhibition @ 1 uM” value in test [2] is 34%. Besides, the “MLK-2 Kinase % inhibition @ 1 uM” value on baculoviral GST-MLK2KDLZ was −13%. Further, the “VEGFR-1 kinase % inhibition @ 1 uM” value in test [3] was 21%.

As for `O=C1NN=C(c2ccco2)C1=Cc1ncc[nH]1` [Compound 54], the “FGFR1 % inhibition @ 1 uM” value in test [1] is recorded as 45%. Moreover, in test [2], the “VEGFR-2 kinase % inhibition @ 1 uM” value was 4%. Besides, at baculoviral GST-MLK2KDLZ, the “MLK-2 Kinase % inhibition @ 1 uM” value is −48%. The “VEGFR-1 kinase % inhibition @ 1 uM” value in test [3] stood at 5%.

For the molecule `Cc1cc(C)c(C=C2C(=O)NN=C2c2cccn2C)[nH]1` [Compound 55], the “FGFR1 % inhibition @ 1 uM” value in test [1] was found to be 36%. For the same molecule, the “VEGFR-2 kinase % inhibition @ 1 uM” value in test [2] amounted to 38%. The “MLK-2 Kinase % inhibition @ 1 uM” value on baculoviral GST-MLK2KDLZ worked out at 2%. In addition, the “VEGFR-1 kinase % inhibition @ 1 uM” value in test [3] is 20%.

In the case of `Cn1cccc1C1=NNC(=O)C1=Cc1c[nH]c2ccc(F)cc12` [Compound 56], the “FGFR1 % inhibition @ 1 uM” value in test [1] is listed as 30%. Also, in test [2], the “VEGFR-2 kinase % inhibition @ 1 uM” value stood at 8%. For the same molecule, at baculoviral GST-MLK2KDLZ, the “MLK-2 Kinase % inhibition @ 1 uM” value is −14%. In test [3], the “VEGFR-1 kinase % inhibition @ 1 uM” value was determined as 5%.

Consider `Cc1cc(C)c(C=C2C(=O)NN=C2c2cc3ccccc3o2)[nH]1` [Compound 57, 3-benzo[d]furan-2-yl-4-[(3,5-dimethylpyrrol-2-yl)methylene]-2-pyrazolin-5-one], for which the inhibition at 1 µM in test [1] was -2%; in test [2] (read-out: VEGFR-2 kinase % inhibition @ 1 uM) it was 30%; on baculoviral GST-MLK2KDLZ (read-out: MLK-2 Kinase % inhibition @ 1 uM), 5%; in test [3] (read-out: VEGFR-1 kinase % inhibition @ 1 uM) it was 7%.

On to `O=C1NN=C(c2cc3ccccc3o2)C1=Cc1c[nH]c2ccccc12` [Compound 58], for which the “FGFR1 % inhibition @ 1 uM” value in test [1] amounted to 24%. Also, the “VEGFR-2 kinase % inhibition @ 1 uM” value in test [2] was 47%. The “MLK-2 Kinase % inhibition @ 1 uM” value on baculoviral GST-MLK2KDLZ was 4%. Moreover, the “VEGFR-1 kinase % inhibition @ 1 uM” value in test [3] was 51%.

As for `Cn1cc(C=C2C(=O)NN=C2c2cc3ccccc3o2)c2ccccc21` [Compound 59], the “FGFR1 % inhibition @ 1 uM” value in test [1] is recorded as 29%. In addition, the “VEGFR-2 kinase % inhibition @ 1 uM” value in test [2] stood at 14%. Also, the “MLK-2 Kinase % inhibition @ 1 uM” value at baculoviral GST-MLK2KDLZ is −8%. The “VEGFR-1 kinase % inhibition @ 1 uM” value in test [3] is recorded as −2%.

Consider `Cc1cc(C)c(C=C2C(=O)NN=C2c2cccs2)[nH]1` [Compound 61], for which, in test [1], the “FGFR1 % inhibition @ 1 uM” value amounted to 35%. The “VEGFR-2 kinase % inhibition @ 1 uM” value in test [2] is on record as 75%. Further, the “MLK-2 Kinase % inhibition @ 1 uM” value on baculoviral GST-MLK2KDLZ was −4%. In test [3], the “VEGFR-1 kinase % inhibition @ 1 uM” value is 44%.

In the case of `O=C1NN=C(c2cccs2)C1=Cc1c[nH]c2ccccc12` [Compound 62], in test [1], the “FGFR1 % inhibition @ 1 uM” value was 37%. For the same molecule, the “VEGFR-2 kinase % inhibition @ 1 uM” value in test [2] is 52%. In addition, the “MLK-2 Kinase % inhibition @ 1 uM” value at baculoviral GST-MLK2KDLZ is −21%. The “VEGFR-1 kinase % inhibition @ 1 uM” value in test [3] was found to be 38%.

Take `Cn1cc(C=C2C(=O)NN=C2c2cccs2)c2ccccc21` [Compound 63]: the “FGFR1 % inhibition @ 1 uM” value in test [1] is reported as 38%. Further, the “VEGFR-2 kinase % inhibition @ 1 uM” value in test [2] is reported as 75%. Besides, the “MLK-2 Kinase % inhibition @ 1 uM” value on baculoviral GST-MLK2KDLZ is given as 1%. Also, the “VEGFR-1 kinase % inhibition @ 1 uM” value in test [3] was 40%.

On to `N#CCCn1cc(C=C2C(=O)NN=C2c2nccs2)c2ccccc21` [Compound 64], for which the “FGFR1 % inhibition @ 1 uM” value in test [1] is given as 7%. The “VEGFR-2 kinase % inhibition @ 1 uM” value in test [2] came to 43%. In addition, the “MLK-2 Kinase % inhibition @ 1 uM” value on baculoviral GST-MLK2KDLZ amounted to 9%. Also, the “VEGFR-1 kinase % inhibition @ 1 uM” value in test [3] came out at 26%.

As for `N#CCCn1cc(C=C2C(=O)NN=C2c2ccoc2)c2ccccc21` [Compound 65], in test [1], the “FGFR1 % inhibition @ 1 uM” value is reported as 21%. The “VEGFR-2 kinase % inhibition @ 1 uM” value in test [2] is listed as 43%. Further, the “MLK-2 Kinase % inhibition @ 1 uM” value on baculoviral GST-MLK2KDLZ is listed as −3%. In addition, the “VEGFR-1 kinase % inhibition @ 1 uM” value in test [3] amounted to 22%.

For `N#CCCn1cc(C=C2C(=O)NN=C2c2cccs2)c2ccccc21` [Compound 66], in test [1], the “FGFR1 % inhibition @ 1 uM” value came to 29%. For the same molecule, the “VEGFR-2 kinase % inhibition @ 1 uM” value in test [2] is given as 32%. Also, the “MLK-2 Kinase % inhibition @ 1 uM” value on baculoviral GST-MLK2KDLZ was 5%. The “VEGFR-1 kinase % inhibition @ 1 uM” value in test [3] is given as 24%.

As for `N#CCCn1cc(C=C2C(=O)NN=C2c2ccco2)c2ccccc21` [Compound 67], the “FGFR1 % inhibition @ 1 uM” value in test [1] is given as 23%. Moreover, the “VEGFR-2 kinase % inhibition @ 1 uM” value in test [2] was found to be 20%. In addition, on baculoviral GST-MLK2KDLZ, the “MLK-2 Kinase % inhibition @ 1 uM” value is on record as −1%. In addition, the “VEGFR-1 kinase % inhibition @ 1 uM” value in test [3] was found to be 22%.
